In PubChem BioAssay AID248 (DTP/NCI, 2004):
Where “and” joins values, the source holds several entries; their conditions need not be identical. Equal values may be shown once. Toxic doses and inconclusive results are not listed. Rule as the data show it: active = T/C of 150% or more; inactive = T/C below 125%.

System: L1210 leukemia ip in BDF1 mice, survival T/C
Assay: NCI In Vivo Anticancer Drug Screen. Data for tumor model L1210 Leukemia (intraperitoneal) in B6D2F1 (BDF1) mice
Details: endpoint: mean survival time, higher = longer survival
Summary of the method: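 Survival endpoint. Drug-treated group vs vehicle group, expressed as T divided by C. Tumor passaged by transplantation.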

[1] = dose: 100.0 mg/kg/injection, schedule: Q01DX001 (ip), vehicle: carboxymethylcellulose (CMC)
[2] = dose: 200.0 mg/kg/injection, schedule: Q01DX001 (ip), vehicle: carboxymethylcellulose (CMC)
[3] = dose: 400.0 mg/kg/injection, schedule: Q01DX001 (ip), vehicle: carboxymethylcellulose (CMC)
[4] = dose: 100.0 mg/kg/injection, schedule: Q04DX002 (ip), vehicle: Klucel (hydroxypropylcellulose) (HPC)
[5] = dose: 200.0 mg/kg/injection, schedule: Q04DX002 (ip), vehicle: Klucel (hydroxypropylcellulose) (HPC)
[6] = dose: 400.0 mg/kg/injection, schedule: Q04DX002 (ip), vehicle: Klucel (hydroxypropylcellulose) (HPC)
[7] = dose: 100.0 mg/kg/injection, schedule: Q01DX009 (ip), vehicle: Klucel (hydroxypropylcellulose) (HPC)
[8] = dose: 100.0 mg/kg/injection, schedule: Q04DX003 (ip), vehicle: saline
[9] = dose: 200.0 mg/kg/injection, schedule: Q04DX003 (ip), vehicle: saline
[10] = dose: 400.0 mg/kg/injection, schedule: Q04DX003 (ip), vehicle: saline
[11] = dose: 100.0 mg/kg/injection, schedule: Q01DX001 (ip), vehicle: other
[12] = dose: 200.0 mg/kg/injection, schedule: Q01DX001 (ip), vehicle: other
[13] = dose: 400.0 mg/kg/injection, schedule: Q01DX001 (ip), vehicle: other
[14] = dose: 200.0 mg/kg/injection, schedule: Q01DX009 (ip), vehicle: Klucel (hydroxypropylcellulose) (HPC)
[15] = dose: 100.0 mg/kg/injection, schedule: Q01DX001 (ip), vehicle: saline
[16] = dose: 200.0 mg/kg/injection, schedule: Q01DX001 (ip), vehicle: saline
[17] = dose: 400.0 mg/kg/injection, schedule: Q01DX001 (ip), vehicle: saline
[18] = dose: 100.0 mg/kg/injection, schedule: Q04DX003 (ip), vehicle: saline with Tween-80
[19] = dose: 200.0 mg/kg/injection, schedule: Q04DX003 (ip), vehicle: saline with Tween-80
[20] = dose: 400.0 mg/kg/injection, schedule: Q04DX003 (ip), vehicle: saline with Tween-80

Measured: T/C

COc1ccc2c(c1)CCC(=O)O2
inactive: dose: 50.0 mg/kg/injection, schedule: Q01DX001 (ip), vehicle: carboxymethylcellulose (CMC) 100 % of control | [1] 96 % of control | dose: 100.0 mg/kg/injection, schedule: Q04DX003 (ip), vehicle: saline sonified 102 % of control | [2] 100 % of control | dose: 200.0 mg/kg/injection, schedule: Q04DX003 (ip), vehicle: saline sonified 104 % of control | [3] 100 % of control | dose: 400.0 mg/kg/injection, schedule: Q04DX003 (ip), vehicle: saline sonified 102 % of control

COc1cc2c(cc1O)-c1cc3ccc(OC)c(OC)c3c[n+]1CC2
inactive: [4] 103 % of control

Cn1cc(NC(=O)c2cc(NC(=O)CN=C(N)N)cn2C)cc1C(=O)NCCC(=N)N
inactive: dose: 6.3 mg/kg/injection, schedule: Q01DX Z (ip), vehicle: saline 88 % of control | dose: 12.5 mg/kg/injection, schedule: Q01DX Z (ip), vehicle: saline 92 % of control

FCCNCCF
inactive: dose: 5.0 mg/kg/injection, schedule: Q01DX001 (ip), vehicle: saline 101 % of control | dose: 10.0 mg/kg/injection, schedule: Q01DX001 (ip), vehicle: saline 112 % of control

CSc1ccc(OC(=O)Nc2ccccc2C)cc1
inactive: [4] 95 % of control | [5] 106 % of control | [6] 114 % of control

CCCCCCCCCCCCCCC(F)C(=O)O (centres undefined)
inactive: dose: 50.0 mg/kg/injection, schedule: Q01DX009 (ip), vehicle: Klucel (hydroxypropylcellulose) (HPC) 96 % of control | [7] 101 % of control | dose: 100.0 mg/kg/injection, schedule: Q04DX003 (ip), vehicle: Klucel (hydroxypropylcellulose) (HPC) 92 % of control | dose: 200.0 mg/kg/injection, schedule: Q04DX003 (ip), vehicle: Klucel (hydroxypropylcellulose) (HPC) 91 % of control

CC1=CC(=O)[C@@H](O)[C@]2(C)[C@H]3[C@@]4(O)OC[C@]35[C@H]([C@@H](C)[C@H]4O)[C@@H](O)C(=O)O[C@@H]5C[C@@H]12
inactive: dose: 2.5 mg/kg/injection, schedule: Q01DX009 (ip), vehicle: saline 107 % of control | dose: 5.0 mg/kg/injection, schedule: Q01DX009 (ip), vehicle: saline 96 % of control | dose: 10.0 mg/kg/injection, schedule: Q01DX009 (ip), vehicle: saline 102 % of control | dose: 20.0 mg/kg/injection, schedule: Q01DX009 (ip), vehicle: saline 100 % of control

O=C(O)c1c[nH]c2c(Cl)cccc2c1=O
inactive: [4] 100 % of control | [5] 96 % of control | [6] 107 % of control

Oc1c(Br)cc(Br)cc1C=Nc1ccccc1.Oc1c(Br)cc(Br)cc1C=Nc1ccccc1.[Co]
inactive: [8] 92 % of control | [9] 98 % of control | [10] 98 % of control

Br[C](Br)(Br)[Hg][c]1ccccc1
inactive: dose: 6.0 mg/kg/injection, schedule: Q01DX009 (ip), vehicle: Klucel (hydroxypropylcellulose) (HPC) 98 % of control | dose: 12.5 mg/kg/injection, schedule: Q01DX009 (ip), vehicle: Klucel (hydroxypropylcellulose) (HPC) 93 % of control | dose: 12.5 mg/kg/injection, schedule: Q04DX003 (ip), vehicle: Klucel (hydroxypropylcellulose) (HPC) 110 % of control | dose: 25.0 mg/kg/injection, schedule: Q01DX009 (ip), vehicle: Klucel (hydroxypropylcellulose) (HPC) 87 % of control | dose: 25.0 mg/kg/injection, schedule: Q04DX003 (ip), vehicle: Klucel (hydroxypropylcellulose) (HPC) 95 % of control

CC1CC(C)OC2(CCCc3ccccc32)O1 (centres undefined)
inactive: dose: 100.0 mg/kg/injection, schedule: Q04DX002 (ip), vehicle: saline with Tween-80 104 % of control | dose: 200.0 mg/kg/injection, schedule: Q04DX002 (ip), vehicle: saline with Tween-80 100 % of control | dose: 400.0 mg/kg/injection, schedule: Q04DX002 (ip), vehicle: saline with Tween-80 104 % of control

CNC(=O)c1ccccc1-c1ccccc1C(=O)NC
inactive: [11] 102 % of control | [12] 102 % of control | [13] 98 % of control

CN(C)S(=O)(=O)c1ccc(NC(=O)C(Cl)(Cl)Cl)cc1
inactive: [11] 104 % of control | [7] 94 % of control | dose: 100.0 mg/kg/injection, schedule: Q04DX003 (ip), vehicle: other 101 % of control | [12] 96 % of control | [14] 92 % of control | dose: 200.0 mg/kg/injection, schedule: Q04DX003 (ip), vehicle: other 95 % of control | [13] 98 % of control | dose: 400.0 mg/kg/injection, schedule: Q04DX003 (ip), vehicle: other 93 % of control

CC(C)(C)C(=O)CN
inactive: [15] 116 % of control | dose: 100.0 mg/kg/injection, schedule: Q01DX009 (ip), vehicle: saline 101 % of control and 104 % of control | [8] 101 % of control | [16] 119 % of control | dose: 200.0 mg/kg/injection, schedule: Q01DX009 (ip), vehicle: saline 93 % of control and 97 % of control | [9] 109 % of control | [17] 122 % of control | dose: 400.0 mg/kg/injection, schedule: Q01DX009 (ip), vehicle: saline 101 % of control | [10] 93 % of control

Cc1c(C2CCC(=O)C2)c2ccccc2n1C (centres undefined)
inactive: [1] 93 % of control | [2] 89 % of control | [3] 88 % of control

COC(=O)C1=COC(C)C2CN3CCc4c([nH]c5cc(OC)c(OC)cc45)C3CC12 (centres undefined)
inactive: dose: 50.0 mg/kg/injection, schedule: Q01DX Z (ip), vehicle: carboxymethylcellulose (CMC) 103 % of control | dose: 100.0 mg/kg/injection, schedule: Q01DX Z (ip), vehicle: carboxymethylcellulose (CMC) 105 % of control | dose: 200.0 mg/kg/injection, schedule: Q01DX Z (ip), vehicle: carboxymethylcellulose (CMC) 100 % of control | dose: 300.0 mg/kg/injection, schedule: Q01DX Z (ip), vehicle: carboxymethylcellulose (CMC) 105 % of control

CSCCNC(=O)NS(=O)(=O)c1ccc(C)cc1
inactive: [18] 96 % of control | [19] 97 % of control | [20] 97 % of control

CC(=O)Nc1cccc([N+](=O)[O-])c1
inactive: dose: 50.0 mg/kg/injection, schedule: Q01DX009 (ip), vehicle: saline with Tween-80 100 % of control | [15] 108 % of control | dose: 100.0 mg/kg/injection, schedule: Q01DX009 (ip), vehicle: saline with Tween-80 90 % of control | [16] 102 % of control | dose: 200.0 mg/kg/injection, schedule: Q01DX009 (ip), vehicle: saline with Tween-80 103 % of control | [17] 108 % of control

CC(=O)n1c(N)nc2ccccc21
inactive: [7] 103 % of control | [14] 102 % of control

Nc1ncnc2c1cnn2C1OC(CO)C(O)C1O (centres undefined)
inactive: dose: 4.1 mg/kg/injection, schedule: Q01DX009 (ip), vehicle: carboxymethylcellulose (CMC) 97 % of control | dose: 6.2 mg/kg/injection, schedule: Q01DX009 (ip), vehicle: carboxymethylcellulose (CMC) 111 % of control | dose: 9.3 mg/kg/injection, schedule: Q01DX009 (ip), vehicle: carboxymethylcellulose (CMC) 124 % of control | dose: 67.5 mg/kg/injection, schedule: Q01DX015 (ip), vehicle: carboxymethylcellulose (CMC) 122 % of control | [1] 111 % of control

CC(=O)Nc1cc(C(=O)Nc2cccc(C3=NCCN3)c2)ccc1C(=O)Nc1cccc(C2=NCCN2)c1
inactive: dose: 1.3 mg/kg/injection, schedule: Q01DX Z (ip), vehicle: methylcellulose (MC) 96 % of control

O=C(c1ccccc1)C(C(C(=O)c1ccccc1)N1CCOCC1)N1CCOCC1 (centres undefined)
inactive: dose: 50.0 mg/kg/injection, schedule: Q01DX001 (ip), vehicle: saline 94 % of control | [15] 94 % of control | [16] 102 % of control | [17] 94 % of control

O=C(c1ccccc1)c1nonc1C(=O)c1ccccc1
inactive: dose: 100.0 mg/kg/injection, schedule: Q01DX009 (ip), vehicle: saline sonified 93 % of control | [18] 97 % of control | dose: 200.0 mg/kg/injection, schedule: Q01DX009 (ip), vehicle: saline sonified 90 % of control | [19] 92 % of control | dose: 400.0 mg/kg/injection, schedule: Q01DX009 (ip), vehicle: saline sonified 93 % of control | [20] 97 % of control

CCCCCCCC(C(=O)OCC)C(=O)OCC
inactive: [1] 103 % of control | [2] 100 % of control | [3] 100 % of control
